# Reference: paper PMC12485664, “Interaction of class III cellobiose dehydrogenase with lytic polysaccharide monooxygenase” (FEBS Open Bio, 2025)
# What was measured:
# [1] = tested on: T1, FsCDH (class III cellobiose dehydrogenase); assay: DCIP reduction, plate reader, Michaelis-Menten fit; type: biochemical, Fusarium solani; conditions: 0.3 mM DCIP, 50 mM potassium phosphate pH 6.0
# T1 construct: gene CDH; flavocytochrome with cytochrome and dehydrogenase domains; recombinant secreted in Komagataella phaffii, FPLC purified
# Excerpt: DCIP reduction, plate reader, Michaelis-Menten fit on FsCDH (class III cellobiose dehydrogenase)
# [2] = molecular target: T2, NcAA9C (NcLPMO9C) (Neurospora crassa, UniProt Q7SHI8); assay: batch conversion, RDE H2O2 consumption, HPAEC-PAD and MALDI-TOF-MS of products; type: biochemical; conditions: H2O2 cosubstrate, 5 mM ascorbic acid, 30 mM sodium acetate pH 5.0, 100 mM KCl
# T2 construct: gene gh61-3; recombinant secreted in Komagataella phaffii, FPLC purified; copper enzyme, C4-acting
# T2 sequence (Q7SHI8 17-359): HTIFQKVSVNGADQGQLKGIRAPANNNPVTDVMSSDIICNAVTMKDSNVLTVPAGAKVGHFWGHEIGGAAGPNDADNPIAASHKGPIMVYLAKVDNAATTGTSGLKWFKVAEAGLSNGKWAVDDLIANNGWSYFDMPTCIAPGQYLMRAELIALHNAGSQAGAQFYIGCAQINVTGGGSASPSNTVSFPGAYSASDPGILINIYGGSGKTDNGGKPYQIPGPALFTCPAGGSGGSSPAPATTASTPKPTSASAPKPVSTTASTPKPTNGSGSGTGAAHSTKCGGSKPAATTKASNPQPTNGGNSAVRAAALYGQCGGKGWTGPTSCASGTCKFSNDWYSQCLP
Structure (SMILES),Km [1] [µM],also measured
OC[C@H]1O[C@@H](O[C@H]2[C@H](O)[C@@H](O)[C@H](O[C@H]3[C@H](O)[C@@H](O)C(O)O[C@@H]3CO)O[C@@H]2CO)[C@H](O)[C@@H](O)[C@@H]1O (stereo partly shown) [cellotriose],16.1 ± 2.9,–
OC[C@H]1O[C@@H](O[C@H]2[C@H](O)[C@@H](O)[C@H](O[C@H]3[C@H](O)[C@@H](O)[C@H](O[C@H]4[C@H](O)[C@@H](O)[C@H](O[C@H]5[C@H](O)[C@@H](O)C(O)O[C@@H]5CO)O[C@@H]4CO)O[C@@H]3CO)O[C@@H]2CO)[C@H](O)[C@@H](O)[C@@H]1O (stereo partly shown) [cellopentaose],–,"batch conversion, RDE H2O2 consumption, HPAEC-PAD and MALDI-TOF-MS of products [2]: a batch reaction employing NcAA9C, H2O2 as cosubstrate"
OC[C@H]1OC(O)[C@H](O)[C@@H](O)[C@@H]1O[C@@H]1O[C@H](CO)C(O)(O)[C@H](O)[C@H]1O (stereo partly shown) [Glc4gemGlc],–,"Km ([1]; sample not treated with β-glucosidase, 1 to 100 μM): 30.6 ± 8.3 µM"
OC[C@H]1O[C@@H](O[C@H]2[C@H](O)[C@@H](O)C(O)O[C@@H]2CO)[C@H](O)[C@@H](O)[C@@H]1O (stereo partly shown) [cellobiose],21.4 ± 3,–
